The values that follow come from USRE39616E1, “Aminoindan derivatives” (priority 1996, dated 2007).

SMILES strings stand for the structures. Where a name gives a salt, the structure may show the parent alone. Read-outs that look alike come from different tables or passages of the source. Bounds are passed on as bounds.

Data set [1] addresses T1, MAO-A (Rattus norvegicus, UniProt P21396).
T1 sequence (P21396 1-526): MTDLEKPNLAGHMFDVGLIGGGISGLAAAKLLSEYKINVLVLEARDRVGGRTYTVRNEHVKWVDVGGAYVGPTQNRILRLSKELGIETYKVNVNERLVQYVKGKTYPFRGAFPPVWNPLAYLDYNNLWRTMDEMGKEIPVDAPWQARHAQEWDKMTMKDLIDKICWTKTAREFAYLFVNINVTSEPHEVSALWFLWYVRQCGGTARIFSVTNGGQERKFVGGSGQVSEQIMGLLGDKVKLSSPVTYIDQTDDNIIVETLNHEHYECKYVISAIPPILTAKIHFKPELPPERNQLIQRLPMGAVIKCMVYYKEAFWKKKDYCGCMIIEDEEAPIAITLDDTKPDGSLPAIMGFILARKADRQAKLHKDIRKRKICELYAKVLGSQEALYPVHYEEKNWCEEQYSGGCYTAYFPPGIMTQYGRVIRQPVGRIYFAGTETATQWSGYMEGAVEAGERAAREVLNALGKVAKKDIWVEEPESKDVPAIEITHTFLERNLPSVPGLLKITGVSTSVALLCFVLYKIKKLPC
Nature of the data set: Inhibition of MAO activity in vitro, 5-HT as substrate. Format: biochemical. More on the design: The MAO enzyme source was a homogenate of rat brain in 0.3M sucrose; from tissue; host or cells: rat brain homogenate, 600 g supernatant. On the procedure: Substrate concentrations used were 50 μM (PEA) and 1 mM (5-HT).

Data set [2] concerns mice, hypobaric hypoxic model. The data set is described as follows: animal or person. The data set is classed as in vivo. To be noted: Mus musculus; for response vs control in vivo at 8 mg/kg: read-out: Protection (survival time), 8 mg/kg sc, 60 min before hypoxia. The text has this: A 12 liter desiccator (desiccator A) and a 2.5 liter desiccator (desiccator B) were separately connected to a vacuum pump. Desiccator B was disconnected and allowed to equilibrate with room air whilst desiccator A was evacuated to a pressure of 100 mmHg. Four male ICR albino mice (22-28 g) were placed in desiccator B. Desiccator B was then closed to room air and connected to desiccator A. The pressure inside desiccator B was monitored using a mercury manometer and at the point were the pressure in desiccator B reached 200 mmpg (usually within 14 seconds), the two desiccators were disconnected from the vacuum pump and the pump switched off. The survival time from the moment of induction of hypoxia to the time of cessation of respiration was recorded for each mouse for a maximum of 15 minutes after which time room air was reintroduced to desiccator B. Survivors were monitored for signs of lethargy or vitality.
Effect of drug treatment was assessed as the percent of the survival time of the drug treated group with respect to the saline injected or vehicle injected control group. […] The effect of each dose of test drug was determined in duplicate i.e. two groups of 4 mice.
Positive reference drugs were sodium pentobarbital at a dose of 40 mg/kg, and diazepam 10 mg/kg given 0.5 h prior to hypoxia, physostigmine 0.2 and 0.4 mg/kg and neostigmine 0.2 mg/kg given sc 30 min before hypoxia. Methyl atropine 1 mg/kg was given sc. 10 min. before physostigmine.
Test drugs were dissolved in 0.9% saline, and injected sc. in the nip of the neck at a dose in accordance with body weight, 60-90 min. before hypoxia. The volume of injection was 0.2-0.3 mL per mouse (10 mL/kg). The initial dose was about one third of the reported LD50 for acetylcholine esterase inhibition. If no protection could be obtained, the dose was further increased to the nearest non-toxic dose. In case of protection, the dose was further reduced in an attempt to locate the “protective” dose range.

Data set [3] addresses T2, MAO-B (Mus musculus, UniProt Q8BW75).
T2 construct: from tissue; host or cells: mouse brain
T2 sequence (Q8BW75 1-520): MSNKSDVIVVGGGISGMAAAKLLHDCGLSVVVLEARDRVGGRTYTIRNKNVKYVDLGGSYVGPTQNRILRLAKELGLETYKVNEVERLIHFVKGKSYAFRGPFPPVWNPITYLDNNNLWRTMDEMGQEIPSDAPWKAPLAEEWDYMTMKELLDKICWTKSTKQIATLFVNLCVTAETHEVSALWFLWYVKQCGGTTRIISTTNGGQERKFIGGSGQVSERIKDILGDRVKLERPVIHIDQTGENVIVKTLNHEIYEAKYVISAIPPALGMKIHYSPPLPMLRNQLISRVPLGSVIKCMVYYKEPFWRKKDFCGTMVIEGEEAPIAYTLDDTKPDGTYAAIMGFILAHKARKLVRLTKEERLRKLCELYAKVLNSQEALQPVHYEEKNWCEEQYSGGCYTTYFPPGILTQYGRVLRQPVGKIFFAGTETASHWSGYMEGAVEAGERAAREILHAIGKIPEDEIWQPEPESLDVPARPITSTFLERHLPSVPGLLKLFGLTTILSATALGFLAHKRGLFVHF
The data set is described as follows: Inhibition of MAO activity ex vivo (brain). Format: in vivo, mice. In outline: (§1)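 Male Sabra mice dosed with compound in 0.9% saline (2-3 per dose) and killed 2 h post-dose or at peak AChE-inhibition time. Brain homogenized in 0.3 M sucrose and assayed for MAO activity with 50 μM PEA (MAO-B) or 1 mM 5-HT (MAO-A) as substrate.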

The target in data set [4] is T3, MAO-A (Mus musculus, UniProt Q64133).
T3 construct: from tissue; host or cells: mouse brain
T3 sequence (Q64133 1-526): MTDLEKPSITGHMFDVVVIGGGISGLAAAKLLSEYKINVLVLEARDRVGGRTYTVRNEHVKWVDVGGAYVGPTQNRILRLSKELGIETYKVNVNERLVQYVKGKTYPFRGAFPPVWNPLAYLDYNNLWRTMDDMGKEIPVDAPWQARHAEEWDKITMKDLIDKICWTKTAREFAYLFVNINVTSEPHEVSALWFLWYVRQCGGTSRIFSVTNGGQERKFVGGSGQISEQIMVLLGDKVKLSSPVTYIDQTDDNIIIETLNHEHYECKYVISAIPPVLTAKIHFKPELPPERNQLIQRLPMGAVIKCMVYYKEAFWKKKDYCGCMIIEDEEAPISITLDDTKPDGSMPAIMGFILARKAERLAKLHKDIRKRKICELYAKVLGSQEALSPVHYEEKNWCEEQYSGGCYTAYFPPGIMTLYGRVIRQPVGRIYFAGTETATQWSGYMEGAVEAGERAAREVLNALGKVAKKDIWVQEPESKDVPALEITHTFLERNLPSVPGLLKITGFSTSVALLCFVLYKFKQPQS
The data set is described as follows: Inhibition of MAO activity ex vivo (brain). Format: in vivo, mice. In outline: as §1

Data set [5] deals with mice.
Method: Therapeutic Ratio was calculated as LD50 divided by ED50 of ex vivo acetylcholine esterase inhibition.
Where [6] appears, read: MAO-A Inhibition In vitro IC50, rat brain homogenate, 5-HT substrate.
Setting [7] is: mice, within 6 hours after administration.
[8] abbreviates: sc, read-out: Protection (survival time), 50 mg/kg sc, 60 min before hypoxia.

Compound `CN(C)C(=O)Oc1ccc2c(c1)C(N)CC2` (centres unmarked) [Compound 1] yielded an IC50 in data set [1] (setting [6]) of 75 µM. For the same compound, the response vs control in vivo at 2 mg/kg in data set [2] (sc, read-out: Protection (survival time), 2 mg/kg sc, 60 min before hypoxia) was 120 ± 51%. Besides, in data set [2] (sc, read-out: Protection (survival time), 4 mg/kg sc, 60 min before hypoxia), the response vs control in vivo at 4 mg/kg was 470 ± 200%. For the same compound, in data set [2] (sc), the response vs control in vivo at 8 mg/kg is 637 ± 116%. For the same compound, the “MAO-B Inhibition Ex vivo ED50” value in data set [3] (mice, brain tissue) is reported as >>80 μmoles/kg. Also, the “MAO-A Inhibition Ex vivo ED50” value in data set [4] (mice, brain tissue) was >>80 μmoles/kg. Besides, the “Acute Toxicity LD50 (LD)” value in data set [5] (setting [7]) was 83.8 µmol/kg.

On to `CCN(C)C(=O)Oc1ccc2c(c1)C(NC)CC2` (centres unmarked) [Compound 10], for which, in data set [1] (rat brain homogenate, 5-HT substrate, read-out: MAO-A Inhibition In vitro IC50), the IC50 was 22 µM. In addition, in data set [2] (sc, read-out: Protection (survival time), 10 mg/kg sc, 90 min before hypoxia), the response vs control in vivo at 10 mg/kg amounted to 304 ± 129%. Further, the response vs control in vivo at 25 mg/kg in data set [2] (sc, read-out: Protection (survival time), 25 mg/kg sc, 90 min before hypoxia) was 700 ± 201%. Further, in data set [2] (sc, read-out: Protection (survival time), 50 mg/kg sc, 90 min before hypoxia), the response vs control in vivo at 50 mg/kg stood at 705 ± 101%. The “MAO-B Inhibition Ex vivo ED50” value in data set [3] (mice, brain tissue) was more than 175 µmol/kg. For the same compound, in data set [4] (mice, brain tissue), the “MAO-A Inhibition Ex vivo ED50” value is more than 175 µmol/kg. The “Acute Toxicity LD50 (LD)” value in data set [5] (setting [7]) is 740 µmol/kg.

In the case of `C#CCNC1CCc2ccc(OC(=O)N(C)C)cc21` (centres unmarked) [Compound 24, 6-(N,N-Dimethylcarbamyloxy)-N-propargyl aminoindan mesylate], 850 µM corresponded to half-maximal inhibition in data set [1] (setting [6]) (IC50). Further, in data set [2] (sc, read-out: Protection (survival time), 21 mg/kg sc, 60 min before hypoxia), the response vs control in vivo at 21 mg/kg worked out at 269 ± 166%. In addition, the response vs control in vivo at 50 mg/kg in data set [2] (setting [8]) is 738%. Besides, the “MAO-B Inhibition Ex vivo ED50” value in data set [3] (mice, brain tissue) was found to be 100 µmol/kg. Besides, in data set [4] (mice, brain tissue), the “MAO-A Inhibition Ex vivo ED50” value is more than 120 µmol/kg. In addition, the “Acute Toxicity LD50 (LD)” value in data set [5] (mouse, in vivo) was 179 µmol/kg.

As for `C#CCNC1CCc2ccc(OC(=O)N(C)CC)cc21` (centres unmarked) [Compound 25, 6-(N-Me, N-Etcarbamyloxy) N-propargyl aminoindan, HCl], the concentration for half-maximal inhibition (IC50) in data set [1] (MAO-A Inhibition In vitro IC50) turned out to be 270 µM. Besides, in data set [2] (25 mg/kg sc, 60 min before hypoxia, read-out: Protection (survival time)), the response vs control in vivo at 25 mg/kg amounted to 84 ± 35%. For the same compound, in data set [2] (50 mg/kg sc, 60 min before hypoxia, read-out: Protection (survival time)), the response vs control in vivo at 50 mg/kg turned out to be 380 ± 231%. For the same compound, the response vs control in vivo at 75 mg/kg in data set [2] (75 mg/kg sc, 60 min before hypoxia, read-out: Protection (survival time)) amounted to 559 ± 225%. The response vs control in vivo at 100 mg/kg in data set [2] (100 mg/kg sc, 60 min before hypoxia, read-out: Protection (survival time)) was 761 ± 91%. In data set [3] (mouse, in vivo), the “MAO-B Inhibition Ex vivo ED50” value was 200 µmol/kg. In addition, in data set [4] (mouse, in vivo), the “MAO-A Inhibition Ex vivo ED50” value is recorded as >>350 μmoles/kg. For the same compound, the “Acute Toxicity LD50 (LD)” value in data set [5] (setting [7]) was 1400 µmol/kg. Also, in data set [5] (mouse, in vivo), the “Therapeutic Ratio LD/AC” value was 10.8.

`C#CCNC1CCc2cccc(OC(=O)N(C)C)c21` (centres unmarked) [Compound 27]: in data set [1] (setting [6]), the IC50 was more than 1000 µM. Moreover, the response vs control in vivo at 3 mg/kg in data set [2] (sc, read-out: Protection (survival time), 3 mg/kg sc, 60 min before hypoxia) was found to be 287 ± 319%. Moreover, the response vs control in vivo at 8 mg/kg in data set [2] (sc) turned out to be 119 ± 45%. Further, the response vs control in vivo at 15 mg/kg in data set [2] (sc, read-out: Protection (survival time), 15 mg/kg sc, 60 min before hypoxia) turned out to be 143 ± 56%. In addition, in data set [2] (setting [8]), the response vs control in vivo at 50 mg/kg was determined as 455 ± 23%. In addition, the “MAO-B Inhibition Ex vivo ED50” value in data set [3] (mice, brain tissue) was >>160 μmoles/kg. Moreover, in data set [4] (mice, brain tissue), the “MAO-A Inhibition Ex vivo ED50” value is reported as >>160 μmoles/kg. In addition, in data set [5] (mouse, in vivo), the “Acute Toxicity LD50 (LD)” value is 300 µmol/kg and the “Therapeutic Ratio LD/AC” value amounted to 10.

The compound `C#CCN(C)C1CCc2ccc(OC(=O)N(C)C)cc21` (centres unmarked) [Compound 29] had an IC50 in data set [1] (setting [6]) of 40 µM. For the same compound, the response vs control in vivo at 25 mg/kg in data set [2] (sc, read-out: Protection (survival time), 25 mg/kg sc, 30 min before hypoxia) came to 273 ± 183%. Besides, the response vs control in vivo at 25 mg/kg in data set [2] (sc, read-out: Protection (survival time), 25 mg/kg sc, 60 min before hypoxia) is 131 ± 56%. Besides, in data set [2] (sc, read-out: Protection (survival time), 53 mg/kg sc, 60 min before hypoxia), the response vs control in vivo at 53 mg/kg came to 638 ± 10%. In addition, the response vs control in vivo at 77 mg/kg in data set [2] (sc, read-out: Protection (survival time), 77 mg/kg sc, 60 min before hypoxia) amounted to 508 ± 206%. The “MAO-B Inhibition Ex vivo ED50” value in data set [3] (mice, brain tissue) was 30 µmol/kg. Besides, in data set [4] (mice, brain tissue), the “MAO-A Inhibition Ex vivo ED50” value worked out at 50 µmol/kg. In data set [5] (mouse, in vivo), the “Acute Toxicity LD50 (LD)” value came out at 500 µmol/kg and the “Therapeutic Ratio LD/AC” value worked out at 9.3.
